For assay [1], the system named is SMN2 mRNA. The assay can be described thus: In vitro cell-free splicing assay for inclusion of exon 7. It counts as biochemical. The settings on record: HeLa cell nuclear extract, 30° C., 3 hours. How it is done: The following example illustrates how tetracycline compound of the invention are active in an in vitro cell-free assay for the inclusion of exon 7 in […] mRNA. SMN1 and SMN2 pre-mRNA were prepared by in vitro transcription using T7 RNA polymerase of minigene templates that include exon 6, a truncated portion of intron 6, exon 7, intron 7 and a portion of exon 8 in the presence of ^32P-UTP. Labeled RNA was purified on a denaturing polyacrylamide gel followed by phenol extraction and ethanol precipitation of the RNA.
In vitro cell-free splicing of SMN1 and SMN2 transcripts was carried out in a 10 μl reaction volume at 30° C. for 3 hours. The reactions contained 10 fmol of labeled pre-mRNA, 30% (3 VI) HeLa cell nuclear extract (in 20 mM HEPES, pH 7.4, 20% (v/v) glycerol, 0.1M KC1, 0.2 mM EDTA), 1.3% (w/v) polyvinyl alcohol, 1.56 mM MgCl2, 32 mM HEPES, pH 7.4, 0.5 mM ATP, 20 mM creatine phosphate and either 2 μl of test compound (in 20 mM HEPES, pH 7.4, 0.1M KC1, 0.2 mM EDTA) or buffer alone. Following incubation, 200 μl of a solution containing 0.3M NaAc and 0.2% SDS was added to the reaction. Proteins were removed by extraction with an equal volume of phenol and RNA was precipitated with 2.5 volumes of ethanol. RNA was resuspended in formamide sample buffer and separated on a 9% urea-denaturing polyacrylamide gel. Quantitation of splicing was based on phosphorimage analysis (Fujix BAS2000 or Fujifilm FLA-5100). In this assay, percentage exon 7 inclusion averages 12% for the unmutated SMN1 mRNA and 4% for the SMN2 mRNA.
The in vitro activities for exon 7 splicing are expressed as the Emax (the maximum percentage exon 7 inclusion observed) and Cmax (the lowest compound concentration at which the maximum inclusion occurs in μM). For Emax, percentage inclusion values of less than 10% are indicated by “*”, values of 10-20% are indicated by “**”, and values greater than 20% are indicated by “***”. For Cmax data, concentrations of greater than 40 μM are indicated by “*”, concentrations between 40 and 10 μM are represented by “**” and concentrations of less than 10 μM are represented by “***”.

Assay [2] deals with E. coli (EC D1-209). The assay can be described thus: Antibacterial MIC, gram negative. Type of assay: cell-based. The settings on record: CLSI methodology, 35° C., 18-24 hours.
Assay [3] deals with S. aureus (SA RN450). The assay can be described thus: Antibacterial MIC, gram positive. Type of assay: cell-based. The settings on record: CLSI methodology, 35° C., 18-24 hours.

The record followed here is patent US7935687B2, “Methods for treating spinal muscular atrophy using tetracycline compounds” (Paratek Pharmaceuticals, Inc., priority 2007, dated 2011).

Molecules are shown by their SMILES.

Take `CN(C)C1C(O)=C(C(N)=O)C(=O)C2(O)C(O)=C3C(=O)c4c(O)ccc(-c5ccc(NC(=O)CNC(C)(C)C)cc5)c4CC3CC12` (centres unmarked) [AF]: in assay [1], the “Cmax (lowest compound concentration at which the maximum exon 7 inclusion occurs)” value (shortened to “Cmax”) is “*** (concentrations of less than 10 μM)” and the “Emax (maximum percentage exon 7 inclusion observed)” value is recorded as “* (percentage inclusion values of less than 10%)”. The “MIC Gram Negative (EC D1-209)” value in assay [2] is listed as “*** (Good antibacterial activity (e.g., less than about 4 μg/mL))”. Also, the “MIC Gram Positive (SA RN450)” value in assay [3] was “*** (Good antibacterial activity (e.g., less than about 4 μg/mL))”.

Consider `COCCNCC(=O)c1ccc(O)c2c1CC1CC3C(N(C)C)C(O)=C(C(N)=O)C(=O)C3(O)C(O)=C1C2=O` (centres unmarked) [AG], for which, in assay [1], the “Cmax” value was “** (concentrations between 40 and 10 μM)”; the “Emax (maximum percentage exon 7 inclusion observed)” value is given as “* (percentage inclusion values of less than 10%)”. Also, in assay [2], the “MIC Gram Negative (EC D1-209)” value was “* (weak antibacterial activity (greater than about 8 μg/mL))”. The “MIC Gram Positive (SA RN450)” value in assay [3] is “** (modest antibacterial activity (between about 4 and 8 μg/mL))”.

`CN(C)CCNC(=O)c1ccc(O)c2c1CC1CC3C(N(C)C)C(O)=C(C(N)=O)C(=O)C3(O)C(O)=C1C2=O` (centres unmarked) [AH]: in assay [1], the “Cmax” value was “** (concentrations between 40 and 10 μM)”; the “Emax (maximum percentage exon 7 inclusion observed)” value is reported as “* (percentage inclusion values of less than 10%)”. The “MIC Gram Negative (EC D1-209)” value in assay [2] is listed as “* (weak antibacterial activity (greater than about 8 μg/mL))”. Moreover, the “MIC Gram Positive (SA RN450)” value in assay [3] is “* (weak antibacterial activity (greater than about 8 μg/mL))”.

For the compound `COc1ccc(CNCc2ccc(-c3ccc(O)c4c3CC3CC5C(N(C)C)C(O)=C(C(N)=O)C(=O)C5(O)C(O)=C3C4=O)cc2)cc1` (centres unmarked) [AW], in assay [1], the “Cmax” value is reported as “*** (concentrations of less than 10 μM)” and the “Emax (maximum percentage exon 7 inclusion observed)” value is reported as “** (values of 10-20%)”. For the same compound, in assay [2], the “MIC Gram Negative (EC D1-209)” value is listed as “*** (Good antibacterial activity (e.g., less than about 4 μg/mL))”. In addition, in assay [3], the “MIC Gram Positive (SA RN450)” value is recorded as “*** (Good antibacterial activity (e.g., less than about 4 μg/mL))”.

Regarding `CN(C)C1C(O)=C(C(N)=O)C(=O)C2(O)C(O)=C3C(=O)c4c(O)ccc(-c5ccc(CN6CCOCC6)o5)c4CC3CC12` (centres unmarked) [AX], in assay [1], the “Cmax” value is given as “*** (concentrations of less than 10 μM)” and the “Emax (maximum percentage exon 7 inclusion observed)” value is given as “** (values of 10-20%)”. Further, the “MIC Gram Negative (EC D1-209)” value in assay [2] was “** (modest antibacterial activity (between about 4 and 8 μg/mL))”. Further, the “MIC Gram Positive (SA RN450)” value in assay [3] is on record as “*** (Good antibacterial activity (e.g., less than about 4 μg/mL))”.

In the case of `CN1CCN(Cc2ccc(-c3ccc(O)c4c3CC3CC5C(N(C)C)C(O)=C(C(N)=O)C(=O)C5(O)C(O)=C3C4=O)o2)CC1` (centres unmarked) [AY], in assay [1], the “Cmax” value was “*** (concentrations of less than 10 μM)” and the “Emax (maximum percentage exon 7 inclusion observed)” value is reported as “*** (values greater than 20%)”. Moreover, in assay [2], the “MIC Gram Negative (EC D1-209)” value was “* (weak antibacterial activity (greater than about 8 μg/mL))”. The “MIC Gram Positive (SA RN450)” value in assay [3] is “*** (Good antibacterial activity (e.g., less than about 4 μg/mL))”.

With `CON=Cc1ccc(-c2ccc(O)c3c2CC2CC4C(N(C)C)C(O)=C(C(N)=O)C(=O)C4(O)C(O)=C2C3=O)o1` (centres unmarked) [AZ], in assay [1], the “Cmax” value is reported as “*** (concentrations of less than 10 μM)” and the “Emax (maximum percentage exon 7 inclusion observed)” value is recorded as “** (values of 10-20%)”. Besides, in assay [2], the “MIC Gram Negative (EC D1-209)” value is reported as “* (weak antibacterial activity (greater than about 8 μg/mL))”. The “MIC Gram Positive (SA RN450)” value in assay [3] is listed as “*** (Good antibacterial activity (e.g., less than about 4 μg/mL))”.

Consider `COc1ccc(-c2ccc(O)c3c2CC2CC4C(N(C)C)C(O)=C(C(N)=O)C(=O)C4(O)C(O)=C2C3=O)cc1CNCC(N)=O` (centres unmarked) [BE], for which, in assay [1], the “Cmax” value is “*** (concentrations of less than 10 μM)” and the “Emax (maximum percentage exon 7 inclusion observed)” value is recorded as “** (values of 10-20%)”. In addition, the “MIC Gram Negative (EC D1-209)” value in assay [2] is recorded as “* (weak antibacterial activity (greater than about 8 μg/mL))”. Besides, the “MIC Gram Positive (SA RN450)” value in assay [3] is recorded as “*** (Good antibacterial activity (e.g., less than about 4 μg/mL))”.

For the compound `CN(C)C1C(O)=C(C(N)=O)C(=O)C2(O)C(O)=C3C(=O)c4c(O)ccc(-c5coc(CN6CCCCC6)c5)c4CC3CC12` (centres unmarked) [BF], in assay [1], the “Cmax” value is “*** (concentrations of less than 10 μM)” and the “Emax (maximum percentage exon 7 inclusion observed)” value is recorded as “** (values of 10-20%)”. For the same compound, in assay [2], the “MIC Gram Negative (EC D1-209)” value is “*** (Good antibacterial activity (e.g., less than about 4 μg/mL))”. In addition, the “MIC Gram Positive (SA RN450)” value in assay [3] is given as “*** (Good antibacterial activity (e.g., less than about 4 μg/mL))”.

Regarding `CN(C)C1C(O)=C(C(N)=O)C(=O)C2(O)C(O)=C3C(=O)c4c(O)ccc(-c5ccc(CNCc6cccnc6)o5)c4CC3CC12` (centres unmarked) [BI], in assay [1], the “Cmax” value is “*** (concentrations of less than 10 μM)” and the “Emax (maximum percentage exon 7 inclusion observed)” value was “** (values of 10-20%)”. Moreover, in assay [2], the “MIC Gram Negative (EC D1-209)” value was “*** (Good antibacterial activity (e.g., less than about 4 μg/mL))”. For the same compound, the “MIC Gram Positive (SA RN450)” value in assay [3] was “*** (Good antibacterial activity (e.g., less than about 4 μg/mL))”.

In the case of `CN(Cc1cccnc1)Cc1cccc(-c2ccc(O)c3c2CC2CC4C(N(C)C)C(O)=C(C(N)=O)C(=O)C4(O)C(O)=C2C3=O)c1` (centres unmarked) [BJ], in assay [1], the “Cmax” value is recorded as “*** (concentrations of less than 10 μM)” and the “Emax (maximum percentage exon 7 inclusion observed)” value is given as “** (values of 10-20%)”. In assay [2], the “MIC Gram Negative (EC D1-209)” value is reported as “* (weak antibacterial activity (greater than about 8 μg/mL))”. In assay [3], the “MIC Gram Positive (SA RN450)” value is “*** (Good antibacterial activity (e.g., less than about 4 μg/mL))”.

`CN(CCC#N)Cc1cccc(-c2ccc(O)c3c2CC2CC4C(N(C)C)C(O)=C(C(N)=O)C(=O)C4(O)C(O)=C2C3=O)c1` (centres unmarked) [BL]: in assay [1], the “Cmax” value was “* (concentrations of greater than 40 μM)” and the “Emax (maximum percentage exon 7 inclusion observed)” value is “** (values of 10-20%)”. In addition, in assay [2], the “MIC Gram Negative (EC D1-209)” value is given as “* (weak antibacterial activity (greater than about 8 μg/mL))”. For the same compound, the “MIC Gram Positive (SA RN450)” value in assay [3] was “*** (Good antibacterial activity (e.g., less than about 4 μg/mL))”.

Take `COCCNCc1ccoc1-c1ccc(O)c2c1CC1CC3C(N(C)C)C(O)=C(C(N)=O)C(=O)C3(O)C(O)=C1C2=O` (centres unmarked) [BQ]: in assay [1], the “Cmax” value is recorded as “*** (concentrations of less than 10 μM)” and the “Emax (maximum percentage exon 7 inclusion observed)” value is listed as “** (values of 10-20%)”. In addition, in assay [2], the “MIC Gram Negative (EC D1-209)” value is given as “* (weak antibacterial activity (greater than about 8 μg/mL))”. Also, the “MIC Gram Positive (SA RN450)” value in assay [3] is on record as “*** (Good antibacterial activity (e.g., less than about 4 μg/mL))”.

For the compound `CC(=O)N1CCN(CC(=O)c2ccc(O)c3c2CC2CC4C(N(C)C)C(O)=C(C(N)=O)C(=O)C4(O)C(O)=C2C3=O)CC1` (centres unmarked) [BS], in assay [1], the “Cmax” value is on record as “* (concentrations of greater than 40 μM)” and the “Emax (maximum percentage exon 7 inclusion observed)” value is given as “** (values of 10-20%)”. In assay [2], the “MIC Gram Negative (EC D1-209)” value is on record as “* (weak antibacterial activity (greater than about 8 μg/mL))”. Also, the “MIC Gram Positive (SA RN450)” value in assay [3] is listed as “*** (Good antibacterial activity (e.g., less than about 4 μg/mL))”.
